# Measured values from patent publication US4442093A, “Method for administering 24,25-dihydroxycholecalciferol to persons suffering from hypercalcemia” (Kureha Kagaku Kogyo Kabushiki Kaisha, priority 1981, dated 1984).
# Where two headings read alike, the source gives them in different places. No end group written: not given here.
# Tests used:
# [1] = test system: mononucleates (lymphocytes) of peripheral blood; assay: Blastoid-transformation of rat lymphocytes in peripheral blood, 3H-TdR uptake (Example 13); format: in vivo
# Procedure: The effect of the present compound on the blastoid-transformation of rat lymphocytes in the peripheral blood was examined as follows: After mixing each of the blood specimens taken from the respective rats of the four groups in Example 11 added with heparin and RPMI-1640 culture medium at a weight ratio of 1:1, the mixture was added to Ficoll-Paque solution, and the thus obtained mixture was subjected to centrifugal separation at 400 G for 20 min to collect the layer of mononucleates. After washing the thus collected mononucleates three times with PRMI-1640 culture medium (in a liquid state), the washed mononucleates were suspended into RPMI-1640 culture medium added with 10% by weight of calf serum to be in concentration of 1.5×10^6 cells/ml. Hundred microliters of the thus prepared suspension was placed in the pit of Pharcon microtest II plate, and after adding a substance promoting cell division (hereinafter referred to as mitogen) and RPMI-1640 culture medium added with 10% by weight of calf serum to the thus placed suspension to make the total volume 200 microliters, the thus prepared mixture was incubated for 72 hours under a gas (a 95:5 by volume mixture of air and carbon dioxide saturated with moisture) flow at 37° C. ^3 H-methylthymidine of specific activity of 5 Ci/mmol was added to the mixture during incubation at the time 24 hours before the incubation was over in an amount corresponding to 0.5 micro Ci. After the incubation was over, the cells in the culture were collected by filtering the cultured mixture, and the amount of radioactive isotope uptaken into the cells was determined by a liquid scintillation counter. For reference, the mitogen used in the present test is concanavalin A for T-cell or lipopolysaccharide for B-cell.
# thymus = assay: Weight ratio of thymus to body and number of thymocytes in rats given puromycin aminonucleoside (Example 11); format: in vivo, male JCL-Wistar rats; settings: 100 µg/kg/day oral 12 days with puromycin aminonucleoside 15 mg/kg s.c.
# Procedure: Thirty-two male JCL-Wistar rats in tenth week after birth were used in the present test while keeping them in a room at 21±1° C. and 60±5% RH with solid diet (CE 2) and water taken ad lib.
# They were divided equally into 4 groups (one group consisting of 8 animals), their treatments in the test being as follows:
# subcutaneous injection of puromycin aminonucleoside as in the second group and oral administration of 24R,25-(OH)2 -D3 dissolved in Panacete 810 once a day at a daily dose rate of 100 micrograms/kg for continuous 12 days.
# subcutaneous injection of puromycin aminonucleoside as in the second group and oral administration of 24S,25-(OH)2 -D3 dissolved in Panacete 810 once a day at a daily dose rate of 100 micrograms/kg for continuous 12 days.
# After uniformly loosing the thymus in phosphate buffer solution with a forcets and fully pipetting, the mixture was filtered through a stainless steel mesh (Tylar standard #200) and the filtrate containing the thymic cells was stained with Turk's solution. The thus stained specimen was subjected to counting under a microscope.
# gastric ulcer = assay: Prevention of gastric ulcer due to pyloric ligation (Example 9); format: in vivo, male Wistar rats; settings: 200 µg/kg i.p. once after pyloric ligation, 15 h
# Procedure: Twenty male Wistar rats of average body weight of 250 g were divided equally into two groups, and used in the following test:
# After 36 hour fasting, all the rats were subjected to pyloric ligation, and the rats of the first group were administered with 2 ml/kg of Panacete®810 (triglyceride ester of C8 and C10 -fatty acid, made by Nippon Oil & Fats Co., Ltd.) containing 0.2% by weight of ethanol intraperitoneally once just after ligation. The rats of the second group were administered with 24R,25-(OH)2 -D3 dissolved in Panacete®810 containing 0.2% by weight of ethanol intraperitoneally at a dose rate of 200 micrograms/kg body weight once just after ligation. After 15 hours of administration, all the rats were subjected to gastrectomy, and the presence or absence of the gastroparietal ulcer was examined on all the resected stomach.
# As a result, the occurrence of gastric ulcer was found on 9 rats of 10 rats of the first group, and on 2 rats of 10 rats of the second group.
# In a similar test, 24S,25-(OH)2 -D3 was used instead of 24R,25-(OH)2 -D3 to examine its effect in preventing the occurrence of gastric ulcer due to pyloric ligation. As a result, the occurrence of gastric ulcer was recognized on 3 rats of 10 rats of the group similarly treated to those of the second group.
# thymic cells = assay: Pattern of the size of thymic cells by FACS (Example 12); format: in vivo, rats; settings: 100 µg/kg/day oral 12 days with puromycin aminonucleoside
# Procedure: After feeding the rats (the same number and the same grouping) of the same strain and treating them in the same manner as in Example 11, their thymus was resected, and an analysis of the pattern of the size of the thymic cells was carried out while using Fluorescence Activated Cell Sorter (FACS II, made by Becton-Dickinson Co.) as follows:
# After loosing the resected thymus in phosphate buffer solution sufficiently with a pincette, pipetting well and passing the mixture through a standard #200 Tyler stainless steel mesh, the filtrate was treated with an aqueous 0.83% by weight ammonium chloride buffer solution containing tris-hydroxyaminomethane to carry out hemolysis of the erythrocytes intermingled therein followed by three times of washing with the phosphate buffer solution. After adjusting the concentration of the thus obtained thymic cell to 5×10^6 cells/ml with the addition of the phosphate buffer solution, the abovementioned analysis was carried out. The ratio of the number of living thymic cells to the total number of the thus obtained thymic cells was confirmed to be higher than 95% after staining with trypan blue and counting under microscope.
# calcium level in serum [2] = settings: dog with hyper-parathyreosis, thyroid arterial route; cited from earlier work
# tumour = assay: Anti-tumour experiments using mouse and rat as the host; format: in vivo
# calcium level in serum [3] = settings: normal person, 250 micrograms oral; cited from earlier work
# calcium level in serum [4] = settings: healthy dog, continuous injection 20 min into thyroid artery; cited from earlier work
# calcium level in serum [5] = settings: patients suffering from hypocalcemia; cited from earlier work
# blood sugar level = assay: Blood sugar in patients (Example 23); format: in vivo, human; settings: patients suffering from glycosuria
# Procedure: Three patients shown in Table 17 were treated by oral administration of a daily dose of 4 to 6 micrograms of 24R,25-(OH)2 -D3 in a form of the soft capsule composition obtained in Example 6 for 3 continuous weeks. After the completion of administration, the patient was fasted for a night and their blood specimen was collected at 11:00 a.m. in the next morning.
# Effectiveness of reducing blood sugar level (ERBS) is calculated from the […]
# magnesium level in serum [6] = settings: thyroidectomized and parathyroidectomized rats, administered once; cited from earlier work
# [7] = 30-day repeated oral administration toxicity (Example 26); format: in vivo, ICR mouse; settings: 1 mg/kg/day, 30 days
# Procedure: 24R,25-(OH)2 -D3 was dissolved in Panacete® 810 containing 1% by weight of ethanol, and the solution was forcibly p.o. administered once a day for 30 continuous days to each male or female ICR mouse of the groups shown in Table 20 at each one of the daily dose rates also shown in Table 20.
# As the control, Panacete 810 was solely and forcibly p.o. administered to the mice of the same strain once a day for 30 continuous days.
# magnesium level in serum [8] = settings: bilateral nephrectomy rats; cited from earlier work
# [9] = test system: inorganic phosphate level in serum; settings: after its administration; cited from earlier work
# calcium level in serum [10] = assay: Serum calcium in rats made hypercalcemic with Vitamin D3 (Example 1); format: in vivo, male Wistar rats; settings: for Calcium level in serum: 24R 100 µg/kg oral, calcitonin 4 MRCU/kg s.c.
# Procedure: To 16 subgroups of male Wistar rats of body weight of 150±40 g (one subgroup consisting of 5 rats), a solution of Vitamin D3 dissolved in corn oil at 600 micrograms/ml was orally administered once a day for continuous 4 days at a daily dose rate of 0.5 ml/100 g body weight to prepare the rats artifically suffering from hypercalcemia. After one day's fasting from the final administration of Vitamin D3, the calcium level in the serum of each rat of the first subgroup was on the average 13.5±0.4 mg/dl. The remaining 15 subgroups of the rats were divided into 3 groups each consisting of 5 subgroups and subjected to the following tests.
# To the rats of the second group, a solution of porcine calcitonin in a physiological saline solution containing 4% by weight of gelatin was subcutaneously injected at a dose rate of 4 MRCU/kg body weight instead of the solution of 24R,25-(OH)2 -D3 and they were treated as those of the first group.
# To the rats of the third group, only the same triglyceride ester as in the first group was orally administered, and they are treated in the same manner as in the first group.
# The calcium level of the respective sera of the thus collected blood was determined by OCPC method (Orthocresol Phthalein Complexone method) and shown in Table 1.
# [11] = 100 µg/kg/day oral 12 days with puromycin aminonucleoside
molecule,measurement,setting,value
"C=C1CC[C@H](O)C/C1=C/C=C1\CCC[C@]2(C)[C@@H]([C@H](C)CC[C@H](O)C(C)(C)O)CC[C@@H]12 [24S,25-(OH)2 -D3]",Uptake of 3H-TdR in presence of Concanavalin A,[1]; [11],3582 ± 362 cpm
same,Uptake of 3H-TdR in presence of Lipopolysaccharide,[1]; [11],3126 ± 351 cpm
same,"Number of mononucleate (ratio, first group = 1.00)","[1]; po, 0.1 mg/kg, 288 h",0.58 ± 0.15
same,Number of thymocytes,thymus,(30 ± 4.5) × 10^7
same,occurrence of gastric ulcer,gastric ulcer,3 rats of 10 rats
same,number ratio of cells a little larger than normal cell to total thymic cells,thymic cells,the same as that of the control group
"C=C1CC[C@H](O)C/C1=C/C=C1\CCC[C@]2(C)[C@@H]([C@H](C)CCC(O)C(C)(C)O)CC[C@@H]12 (some centres unmarked) [24,25-(OH)2 -D3, 24,25-dihydroxycholecalciferol]",Calcium level in serum,calcium level in serum [2],did not change the dog's calcium level in serum
same,anti-tumour effect in vivo,tumour,anti-tumour effect of the compound was confirmed
same,Calcium level in serum,calcium level in serum [3],did not cause the significant change of calcium level
same,Calcium level in serum,calcium level in serum [4],showed a temporary reduction
same,Calcium level in serum,calcium level in serum [5],non of them reported the case where the calcium level in the patient's serum showed a significant change
same,blood sugar level,blood sugar level,significant reduction of the blood sugar level was observed
same,magnesium clearance,magnesium level in serum [6],did not affect the magnesium level in serum thereof and the magnesium clearance thereof
same,magnesium level in serum,magnesium level in serum [6],did not affect the magnesium level in serum
same,biochemical examination of the blood and autopsy,[7],any significant abnormal findings were not observed
same,magnesium level in serum,magnesium level in serum [8],did not affect significantly the magnesium level in serum
"calcitonin: porcine calcitonin in physiological saline solution containing 4% by weight of gelatin (CSNLSTCVLSAYWRNLNNFHRFSGMGFGPETP; ends and bridges not checked; cysteine pairing not given here; UniProt P01259 1-32, looked up)",duration of strong reduction of serum inorganic phosphate level,[9],2 to 3 h
same,effect on raised serum calcium after 2 hours,calcium level in serum [10]; 4 MRCU/kg s.c.,its effect was not recognized after 2 hours of its administration
same,Calcium level in serum,calcium level in serum [10]; 2 h after administration,10.8 ± 0.5 mg/dL
same,Calcium level in serum,calcium level in serum [10]; 5 h after administration,13.0 ± 0.4 mg/dL
same,Calcium level in serum,calcium level in serum [10]; 8 h after administration,13.4 ± 0.4 mg/dL
same,Calcium level in serum,calcium level in serum [10]; 12 h after administration,13.9 ± 0.5 mg/dL
same,Calcium level in serum,calcium level in serum [10]; 24 h after administration,13.4 ± 0.4 mg/dL
